Target: PD-L1 His protein / PD-1 Fc protein (Homo sapiens, UniProt Q9NZQ7)
Test: HTRF Assay (PD-1/PD-L1 interaction)
Format: binding
Conditions: PD-L1 His 6 nM, PD-1 Fc 6 nM
How it was run: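 Compounds tested from 20 μM down to 0.001 μM (3-fold) against 6 nM PD-L1 His and 6 nM PD-1 Fc, 15 min room temperature incubation. Detection after 1 h at room temperature with Tb cryptate anti-6HIS and XL665 anti-human IgG reagents (mixture at 0.35 nM and 6.7 nM), HTRF signal.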

PD-L1 His protein / PD-1 Fc protein, sequence (Q9NZQ7 19-238 limits assumed): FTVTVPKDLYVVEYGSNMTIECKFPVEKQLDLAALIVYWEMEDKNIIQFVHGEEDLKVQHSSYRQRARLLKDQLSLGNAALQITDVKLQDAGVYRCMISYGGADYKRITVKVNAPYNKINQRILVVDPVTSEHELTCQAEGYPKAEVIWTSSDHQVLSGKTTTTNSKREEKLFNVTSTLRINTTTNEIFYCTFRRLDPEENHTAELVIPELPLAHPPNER

Q: Which IC50 does the source give for `COc1nc(-c2cccc(-c3cccc(-c4ccn5c(=O)c(CNC[C@@H]6CCC(=O)N6)cnc5c4)c3Cl)c2Cl)ccc1CNCCNC(C)=O` [Example 103, (S)—N-(2-(((6-(2,2′-Dichloro-3′-(4-oxo-3-((((5-oxopyrrolidin-2-yl)methyl)amino)methyl)-4H-pyrido[1,2-a]pyrimidin-8-yl)-[1,1′-biphenyl]-3-yl)-2-methoxypyridin-3-yl)methyl)amino)ethyl)acetamide] here?
A: Its IC50 is 5 nM.

Q: `COc1cc(-c2cccc(-c3cccc(-c4ccn5c(=O)c(CNC[C@@H]6CCC(=O)N6)cnc5c4)c3Cl)c2Cl)cc(F)c1CNC[C@@H]1CCC(=O)N1` [Example 104, 8-(2,2′-Dichloro-3″-fluoro-5″-methoxy-4″-(((((S)-5-oxopyrrolidin-2-yl)methyl)amino)methyl)-[1,1′:3′,1″-terphenyl]-3-yl)-3-(((((S)-5-oxopyrrolidin-2-yl)methyl)amino)methyl)-4H-pyrido[1,2-a]pyrimidin-4-one] was tested. Which IC50 did it give?
A: Its IC50 is 8.8 nM.

Q: For `COc1c(CNC[C@@H]2CCC(=O)N2)ccc(-c2cccc(-c3cccc(-c4ccn5c(=O)c(CNC[C@@H]6CCC(=O)N6)cnc5c4)c3Cl)c2Cl)c1F` [Example 105, 8-[2-Chloro-3-[2-chloro-3-[2-fluoro-3-methoxy-4-[[[(2S)-5-oxopyrrolidin-2-yl]methylamino]methyl]phenyl]phenyl]phenyl]-3-[[[(2S)-5-oxopyrrolidin-2-yl]methylamino]methyl]pyrido[1,2-a]pyrimidin-4-one], which IC50 is on record?
A: The IC50 was 5.9 nM.

Q: With `COc1cc(-c2cccc(-c3cccc(-c4ccn5c(=O)c(CNC[C@@H]6CCC(=O)N6)cnc5c4)c3Cl)c2Cl)c(F)cc1CNC[C@@H]1CCC(=O)N1` [Example 106, 8-(2,2′-Dichloro-2″-fluoro-5″-methoxy-4″-(((((S)-5-oxopyrrolidin-2-yl)methyl)amino)methyl)-[1,1′:3′,1″-terphenyl]-3-yl)-3-(((((S)-5-oxopyrrolidin-2-yl)methyl)amino)methyl)-4H-pyrido[1,2-a]pyrimidin-4-one] as the molecule, how does the IC50 read?
A: Its IC50 is 4.9 nM.

Q: For `COc1nc(-c2cccc(-c3cccc(-c4ccn5c(=O)c(CNC[C@@H]6CCC(=O)N6)ccc5c4)c3Cl)c2Cl)cnc1CNC[C@@H]1CCC(=O)N1` [Example 107, 8-(2,2′-Dichloro-3′-(6-methoxy-5-(((((S)-5-oxopyrrolidin-2-yl)methyl)amino)methyl)pyrazin-2-yl)-[1,1′-biphenyl]-3-yl)-3-(((((S)-5-oxopyrrolidin-2-yl)methyl)amino)methyl)-4H-quinolizin-4-one], which IC50 is on record?
A: Its IC50 is 0.4 nM.

Q: How did the IC50 turn out when `CSc1nc(-c2cccc(-c3cccc(-c4ccn5c(=O)c(CNC[C@@H]6CCC(=O)N6)cnc5c4)c3Cl)c2Cl)ccc1CNC[C@@H]1CCC(=O)N1` [Example 108, 8-(2,2′-Dichloro-3′-(6-(methylthio)-5-(((((S)-5-oxopyrrolidin-2-yl)methyl)amino)methyl)pyridin-2-yl)-[1,1′-biphenyl]-3-yl)-3-(((((S)-5-oxopyrrolidin-2-yl)methyl)amino)methyl)-4H-pyrido[1,2-a]pyrimidin-4-one] was run?
A: The IC50 was 1 nM.

Q: With `O=C1CC[C@@H](CNCc2ccc(-c3cccc(-c4cccc(-c5ccn6c(=O)c(CNC[C@@H]7CCC(=O)N7)cnc6c5)c4Cl)c3Cl)nc2OC2CC2)N1` [Example 109, 8-(2,2′-Dichloro-3′-(6-cyclopropoxy-5-(((((S)-5-oxopyrrolidin-2-yl)methyl)amino)methyl)pyridin-2-yl)-[1,1′-biphenyl]-3-yl)-3-(((((S)-5-oxopyrrolidin-2-yl)methyl)amino)methyl)-4H-pyrido[1,2-a]pyrimidin-4-one] as the molecule, how does the IC50 read?
A: The IC50 was 1.4 nM.

Q: With `O=C1CC[C@@H](CNCc2ccc(-c3cccc(-c4cccc(-c5ccn6c(=O)c(CNC[C@@H]7CCC(=O)N7)cnc6c5)c4Cl)c3Cl)cc2OC(F)F)N1` [Example 110, 8-(2,2′-Dichloro-3″-(difluoromethoxy)-4″-(((((S)-5-oxopyrrolidin-2-yl)methyl)amino)methyl)-[1,1′:3′,1″-terphenyl]-3-yl)-3-(((((S)-5-oxopyrrolidin-2-yl)methyl)amino)methyl)-4H-pyrido[1,2-a]pyrimidin-4-one] as the molecule, how does the IC50 read?
A: Its IC50 is 2.4 nM.

From patent US20230143612A1 (Arbutus Biopharma Corporation, priority 2020, published 2023)
